From ChEMBL document CHEMBL1123683 (J Med Chem, 1987)

Tests used:
[1] = target: Prostaglandin G/H synthase 1 (Ovis aries) (UniProt P05979); assay: Inhibition of microsomal PGH synthase isolated from sheep seminal vesicles (SSV) estimated as rate of oxygen consumption in presence of 500 uM of the compound; parameters: scale not given: the % may be the effect or the level left
[2] = target: Prostaglandin G/H synthase 1 (Ovis aries) (UniProt P05979); assay: Inhibition of microsomal PGH synthase isolated from sheep seminal vesicles (SSV) estimated as rate of oxygen consumption in presence of 100 uM of the compound
[3] = target: Prostaglandin G/H synthase 1 (Ovis aries) (UniProt P05979); assay: Inhibition of microsomal PGH synthase isolated from sheep seminal vesicles (SSV) estimated as rate of oxygen consumption in presence of 500 uM of the compound; Compound was found to be insoluble
[4] = target: Prostaglandin G/H synthase 1 (Ovis aries) (UniProt P05979); conditions: at 500 µM
[5] = target: Prostaglandin G/H synthase 1 (Ovis aries) (UniProt P05979); assay: Inhibition of microsomal PGH synthase isolated from sheep seminal vesicles (SSV) estimated as rate of oxygen consumption in presence of 100 uM of the compound; parameters: scale not given: the % may be the effect or the level left
[6] = target: Prostaglandin G/H synthase 1 (Ovis aries) (UniProt P05979); assay: Inhibition of PGH synthase in sheep seminal vesicle microsomes

Sequence of Prostaglandin G/H synthase 1 (Ovis aries) (P05979 whole entry, looked up): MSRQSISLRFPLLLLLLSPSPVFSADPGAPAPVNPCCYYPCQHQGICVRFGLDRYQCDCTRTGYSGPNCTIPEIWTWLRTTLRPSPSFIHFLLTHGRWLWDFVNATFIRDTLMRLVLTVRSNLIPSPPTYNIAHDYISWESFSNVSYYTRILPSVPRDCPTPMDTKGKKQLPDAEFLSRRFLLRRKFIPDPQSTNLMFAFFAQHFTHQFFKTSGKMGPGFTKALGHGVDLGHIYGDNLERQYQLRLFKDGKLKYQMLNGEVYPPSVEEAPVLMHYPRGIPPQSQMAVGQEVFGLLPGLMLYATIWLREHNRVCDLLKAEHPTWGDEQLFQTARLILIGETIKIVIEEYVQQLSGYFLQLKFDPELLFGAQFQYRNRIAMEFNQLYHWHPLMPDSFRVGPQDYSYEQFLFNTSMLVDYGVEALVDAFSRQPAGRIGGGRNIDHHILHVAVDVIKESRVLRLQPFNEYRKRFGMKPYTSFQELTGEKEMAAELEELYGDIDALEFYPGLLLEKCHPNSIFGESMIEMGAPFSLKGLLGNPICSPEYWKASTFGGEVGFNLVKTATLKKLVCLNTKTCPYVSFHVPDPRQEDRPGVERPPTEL

| Control [1] | Oxygen consumption rate, % of control [2] | Control [3] | Control [4] | Control [5] | IC50 [6] | Structure (SMILES) |
| --- | --- | --- | --- | --- | --- | --- |
| 66% |  |  |  |  |  | Cc1ccc(NC(=O)CC(=O)Nc2ccc(C)cc2)cc1 |
| 88% |  |  |  |  |  | O=C(CC(=O)Nc1ccc([N+](=O)[O-])cc1)Nc1ccc([N+](=O)[O-])cc1 |
|  | 78% | Insoluble |  |  |  | COc1ccc(NC(=O)CC(=O)Nc2ccc(OC)cc2)cc1 |
|  |  |  | 55% | 65% |  | O=C(CC(=O)Nc1ccccc1)Nc1ccccc1 |
|  | 102% | Insoluble |  |  |  | CCCCC(C(=O)Nc1ccc(OC)cc1)C(=O)Nc1ccc(OC)cc1 |
|  |  | Insoluble |  | 96% |  | CCCCC(C(=O)Nc1ccc(Cl)cc1)C(=O)Nc1ccc(Cl)cc1 |
| Insoluble |  |  |  | 126% |  | CCCCC(C(=O)Nc1ccc([N+](=O)[O-])cc1)C(=O)Nc1ccc([N+](=O)[O-])cc1 |
|  | 64% |  | 48% |  | 420 µM | O=C(CC(=O)Nc1ccc(Cl)cc1)Nc1ccc(Cl)cc1 |
|  |  |  | 86% |  |  | O=C(CC(=O)Nc1cccc(O)c1)Nc1cccc(O)c1 |
|  |  |  | 26% | 67% | 230 µM | O=C(CCCCC(=O)Nc1ccc(O)cc1)Nc1ccc(O)cc1 |
|  | 105% | Insoluble |  |  |  | CCCCC(C(=O)Nc1ccccc1)C(=O)Nc1ccccc1 |
|  | 67% |  | 25% |  | 190 µM | O=C(CC(=O)Nc1ccc(O)cc1)Nc1ccc(O)cc1 |
|  |  |  | 97% |  |  | CCCCC(C(=O)Nc1ccc(C)cc1)C(=O)Nc1ccc(C)cc1 |
| 27% | 79% |  |  |  | 240 µM | O=C(CCC(=O)Nc1ccc(O)cc1)Nc1ccc(O)cc1 |
| 31% |  |  |  | 57% | 150 µM | CCCCC(C(=O)Nc1ccc(O)cc1C)C(=O)Nc1ccc(O)cc1C |
|  |  |  | 36% | 76% | 290 µM | CCCCC(C(=O)Nc1ccc(O)cc1)C(=O)Nc1ccc(O)cc1 |
